By Ki is commonly meant the dissociation constant of the complex between target and ligand, obtained from inhibition or displacement. Low readings indicate a stronger hold on the target, high ones a looser hold on the target. For orientation: MIC50 means the lowest concentration that inhibits either 50% of growth or 50% of the strains tested, depending on the study. By IC50 is commonly meant the midpoint of a concentration-inhibition curve.

For experiment [1], the target named is T1, Enoyl-[acyl-carrier-protein] reductase [NADH] (Mycobacterium tuberculosis, UniProt P9WGR1, V203A).
Experiment [2] addresses Enoyl-[acyl-carrier-protein] reductase [NADH] (Mycobacterium tuberculosis, UniProt P9WGR1, I215A). As to the kind of experiment: biochemical.
The target in experiment [3] is T1, Enoyl-[acyl-carrier-protein] reductase [NADH]. This is another data set of the same source.
Experiment [4] concerns the target T2, Enoyl-[acyl-carrier-protein] reductase [NADH] (Mycobacterium tuberculosis, UniProt P9WGR1, S94A). As to the kind of experiment: Inhibition of Mycobacterium tuberculosis InhA S94A mutant using trans-2-decenoyl-CoA as substrate by spectrophotometric analysis.
The subject of experiment [5] is Mycobacterium tuberculosis. In words: Antimycobacterial activity against Mycobacterium tuberculosis harboring InhA T2A mutant. In kind it is functional.
Experiment [6] has as its target Enoyl-[acyl-carrier-protein] reductase [NADH] (Mycobacterium tuberculosis, UniProt P9WGR1, D2A). As to the kind of experiment: Inhibition of Mycobacterium tuberculosis InhA D2A mutant.
Experiment [7] deals with Enoyl-[acyl-carrier-protein] reductase [NADH] (Mycobacterium tuberculosis, UniProt P9WGR1, T2A). As to the kind of experiment: Inhibition of Mycobacterium tuberculosis InhA T2A mutant.
Experiment [8] addresses Enoyl-[acyl-carrier-protein] reductase [NADH] (Mycobacterium tuberculosis, UniProt P9WGR1, I21V). As to the kind of experiment: Inhibition of Mycobacterium tuberculosis InhA I21V mutant using trans-2-decenoyl-CoA as substrate by spectrophotometric analysis.
In experiment [9] the target is T2, Enoyl-[acyl-carrier-protein] reductase [NADH]. As to the kind of experiment: Inhibition of Mycobacterium tuberculosis InhA S94A mutant.

For `CCCCCCc1ccc(Oc2ccccc2C)c(O)c1`, the Ki in experiment [1] came out at 913 nM; in experiment [2], 114 nM; in [3], 427 nM.
Turning to `NC(=O)c1c[n+]([C@@H]2O[C@H](COP(=O)(O)OP(=O)(O)OC[C@H]3O[C@@H](n4cnc5c(N)ncnc54)[C@H](O)[C@@H]3O)[C@@H](O)[C@H]2O)ccc1C(=O)c1ccncc1`, the Ki in experiment [4] was determined as 5.3 nM; in [6], 172 nM; in [7] it was 5 nM; in experiment [8] it was 2.1 nM; in experiment [9] it was 172 nM. The MIC50 in experiment [5] stood at 1.8 µM. The IC50 in [6] stood at 323 nM; in experiment [7], 19 nM; in experiment [9], 323 nM.

(Values after ChEMBL document CHEMBL4145513, “An overview on crystal structures of InhA protein: Apo-form, in complex with its natural ligands and inhibitors” (Eur J Med Chem, 2018).)
